Earlier results as cited in patent publication EP1757570A1, “Process for obtaining a purified hydrofluoroalkane with 2 carbon atoms” (Solvay SA, priority 2005, dated 2007).
Where two headings read alike, the source gives them in different places.

CC(C)(C#N)N=NC(C)(C)C#N [AIBN, 2,2'-azobis(isobutyronitrile)]
Half life (65 °C): 10 h
Half life (82 °C): 1 h
Half life (120 °C): 0.017 h

O=C(OOC(=O)c1ccccc1)c1ccccc1 [DBP, dibenzoylperoxide]
Half life (73 °C, in solution in benzene): 10 h
Half life (92 °C, in solution in benzene): 1 h
Half life (131 °C, in solution in benzene): 0.017 h
